Values joined by “and” are separate entries in the source; they are usually repeats but may differ in a detail not shown here. Identical values can stand only once. Like-named read-outs stand apart in the source and are kept apart here. Marks after values point to notes of the source that are not given here.
Columns and labels:
cytochrome P450 OleT [1] = biological target: T1, cytochrome P450 OleT (Jeotgalicoccus sp. ATCC 8456, UniProt E9NSU2); details: for maximal high-spin conversion: UV-vis titration, low- to high-spin conversion
cytochrome P450 OleT [2] = biological target: T1, cytochrome P450 OleT; type: biochemical; details: for % metabolized: 5 μM OleT, 500 μM fatty acid; for % metabolized / product distribution (%) alcohols: slow H2O2 addition; for product distribution (%) 1-alkene: determined from subtraction of product alcohols from the total FA metabolized; for alcohol regiospecificity α: share of alcohols hydroxylated at Cα; for alcohol regiospecificity β: share of alcohols hydroxylated at Cβ; for product distribution (%) alcohols: share of total product
cytochrome P450 OleT [3] = type: biochemical, Jeotgalicoccus sp. ATCC 8456
cytochrome P450 OleT [4] = biological target: T1, cytochrome P450 OleT; assay: Stopped flow transient kinetics of OleT:fatty acid complexes with H2O2; type: biochemical
cytochrome P450 OleT [5] = biological target: T1, cytochrome P450 OleT; type: biochemical
cytochrome P450 OleT [6] = biological target: T1, cytochrome P450 OleT; assay: Guaiacol oxidation to tetraguaiacol by fatty acid-activated OleT; type: biochemical; details: DA-d19 compared with protiated DA as decoy
cytochrome P450 OleT [7] = biological target: T1, cytochrome P450 OleT; details: read-out: dissociation constant reported for EA; reported value; ref [2],[13]; cited from earlier work
cytochrome P450 OleT [8] = biological target: T1, cytochrome P450 OleT; details: in vitro; ref [2]–[4]; cited from earlier work
cytochrome P450 OleT [9] = biological target: T1, cytochrome P450 OleT; details: ref [29], cited from earlier work
[10] = 5 μM OleT, 200 mM KPi pH 7.5, 200 mM NaCl, absorbance changes at 392 and 417 nm
[11] = in the presence of norcarane, 10 mM H2O2, 440 nm, 4 °C
[12] = in the absence of norcarane, 10 mM H2O2, 440 nm, 4 °C

## CCCCCC(=O)O [C6:0]
Cytochrome P450 OleT [1]; [10]
  Kd: 164 ± 15 µM
Cytochrome P450 OleT [1]
  maximal high-spin conversion: 19%

## CCCCCCCC(=O)O [C8:0]
Cytochrome P450 OleT [2]
  % metabolized: 100%
  product distribution (%) 1-alkene: 88.4 ± 0.4 ^b %
  alcohol regiospecificity α: 11.3 ± 2.3% α
  alcohol regiospecificity β: 89.0 ± 5.3% β
  product distribution (%) alcohols: 11.6 ± 0.8%
Cytochrome P450 OleT [1]; [10]
  Kd: 134 ± 11 µM
Cytochrome P450 OleT [1]
  maximal high-spin conversion: 25%

## CCCCCCCCCC(=O)O [C10:0, decanoic acid]
Cytochrome P450 OleT [2]
  % metabolized: 100%
  product distribution (%) 1-alkene: 90.0 ± 0.8 ^b %
  alcohol regiospecificity β: 100% β
  product distribution (%) alcohols: 10.0 ± 0.8%
Cytochrome P450 OleT [1]
  Kd: 25 ± 8 µM
  maximal high-spin conversion: 36%

## CCCCCCCCCCCC(=O)O [C12:0, lauric acid]
Cytochrome P450 OleT [2]
  % metabolized: 98.3 ± 0.2%
  alcohol regiospecificity α: 7.0 ± 1.3% α
  alcohol regiospecificity β: 71.5 ± 15.5% β
Cytochrome P450 OleT [2]; listed as LA
  alcohol regiospecificity α: 7%
Cytochrome P450 OleT [2]; share of alcohols hydroxylated at Cγ
  alcohol regiospecificity γ: 21.5 ± 4.4% γ
Cytochrome P450 OleT [3]; determined from direct quantitation
  product distribution (%) 1-alkene: 61.4 ± 7.6 ^a %
Cytochrome P450 OleT [3]; slow H2O2 addition, share of total product
  product distribution (%) alcohols: 38.6 ± 7.6%
Cytochrome P450 OleT [1]
  Kd: 2.8 ± 0.4 µM
  maximal high-spin conversion: 61%

## [2H]C([2H])([2H])C([2H])([2H])C([2H])([2H])C([2H])([2H])C([2H])([2H])C([2H])([2H])C([2H])([2H])C([2H])([2H])C([2H])([2H])C(=O)O [DA-d19, perdeuterated decanoic acid]
Cytochrome P450 OleT [4]; asymptote of RRT1 vs H2O2 plot, 4 °C
  Ole-I decay rate constant: ~ 60 s^−1
Cytochrome P450 OleT [4]; independent of H2O2, 4 °C
  Ole-II decay rate constant: ~10 s⁻¹
Cytochrome P450 OleT [5]; comparison of decoy fatty acids
  product yields for radical clock substrates by decoy fatty acid: highest
Cytochrome P450 OleT [6]
  improvement of guaiacol oxidation rate: approximately 5 fold

## CCCCCCCCCCCCCCCCCCCC(=O)O [EA, eicosanoic acid]
Cytochrome P450 OleT [7]
  Kd: < 1 µM
Cytochrome P450 OleT [8]
  chemoselectivity for 1-nonadecene production: ≥ 95%
Cytochrome P450 OleT [9]; at 5 °C, decarboxylation of EA
  Ole-II decay: ~ 10 s^−1
Cytochrome P450 OleT [9]
  substrate 2H KIE (kH/kD) for the decay of Ole-I: > 8

## [2H]C([2H])([2H])C([2H])([2H])C([2H])([2H])C([2H])([2H])C([2H])([2H])C([2H])([2H])C([2H])([2H])C([2H])([2H])C([2H])([2H])C([2H])([2H])C([2H])([2H])C([2H])([2H])C([2H])([2H])C([2H])([2H])C([2H])([2H])C([2H])([2H])C([2H])([2H])C([2H])([2H])C([2H])([2H])C(=O)O [EA-d39, perdeuterated eicosanoic acid]
Cytochrome P450 OleT [4]; [11]
  Ole-II decay rate constant (RRT2): 10 ± 2 s⁻¹
  Ole-II formation (Ole-I decay) rate constant (RRT1): 83 ± 3 s⁻¹

## [2H]C([2H])([2H])C([2H])([2H])C([2H])([2H])C([2H])([2H])C([2H])([2H])C([2H])([2H])C([2H])([2H])C([2H])([2H])C([2H])([2H])C([2H])([2H])C([2H])([2H])C(=O)O [LA-d23]
Cytochrome P450 OleT [4]; [12]
  Ole-II decay rate constant (RRT2): 10.4 ± 0.5 s⁻¹
  Ole-II formation (RRT1): 105 ± 10 s⁻¹
Cytochrome P450 OleT [4]; [11]
  Ole-II decay rate constant (RRT2): 12.5 ± 0.6 s⁻¹
  Ole-II formation (Ole-I decay) rate constant (RRT1): 66 ± 3 s⁻¹

## CC1CC1c1ccccc1 (centres unmarked) [methylcyclopropane]
Cytochrome P450 OleT [5]; in the presence of DA-d19
  product yield (%) ring-closed: 41.9% and 40.1%
  product yield (%) ring-opened: 58.1% and 59.9%
Cytochrome P450 OleT [5]; per trial, from product ratio and krearr = 3 × 10^11 s−1
  radical lifetime: 2.4 ps

## C1CCC2CC2C1 (centres unmarked) [norcarane, bicyclo[4.1.0]heptane]
Cytochrome P450 OleT [5]; from averaged ratio of rearranged products to norcaranol (G + E)
  radical lifetime: ~ 35 ps
Cytochrome P450 OleT [5]; in the presence of DA-d19
  product yield (%) F: 1.9%
  product yield (%) I: 0.55%
Cytochrome P450 OleT [5]; in the presence of DA-d19, 4-hydroxy-2-norcarene
  product yield (%) C: 3.8%
Cytochrome P450 OleT [5]; in the presence of DA-d19, cation-rearranged product 3-cycloheptenol (A)
  product yield (%) cation: 2.6% and 1.4%
Cytochrome P450 OleT [5]; in the presence of DA-d19, endo-2-norcaranol
  product yield (%) E: 51.5% and 47.6%
Cytochrome P450 OleT [5]; in the presence of DA-d19, exo-2-norcaranol
  product yield (%) G: 38.9% and 33.4%
Cytochrome P450 OleT [5]; in the presence of DA-d19, radical-rearranged product 3-hydroxymethylcyclohexene (D)
  product yield (%) radical: 0.75% and 0.47%
Cytochrome P450 OleT [5]; per trial, from product ratio and krearr = 2 × 10^8 s−1
  radical lifetime: 42 ps and 29 ps

— PMC5658662 (Biochemistry, 2017)
